These results are taken from article PMC8868518, “Exploring Titanium(IV) Complexes as Potential Antimicrobial Compounds” (Antibiotics, 2022).

The term IC50 denotes the midpoint of a concentration-inhibition curve. The term MIC denotes the lowest concentration found to suppress growth.

Where a name gives a salt, the structure may show the parent alone. Read-outs that look alike come from different tables or passages of the source. Where only a bound is given, the exact number is not on record here.

The subject of data set [1] is K. pneumoniae (ATCC 700603). The experiment in a line: CO-ADD antibacterial assay, growth inhibition (OD600). Particulars: up to 32 μg/mL; for MIC / Dmax: Klebsiella pneumoniae, ATCC700603; for Dmax: read-out: Dmax K. pneumoniae, maximum % inhibition. The data set is classed as cell-based, Klebsiella pneumoniae. The procedure:
(§1) Dry compounds ranging from 1–2 mg were weighed into properly labeled Eppendorf tubes and sealed with parafilm. The compounds were used as received by the CO-ADD. For the screenings, most compounds were dissolved to a stock concentration of 10 mg/mL in DMSO. K2[Ti(Citrate)3], Na3Citrate, and K2[TiO(Oxalate)2] were dissolved in warm water. […] Samples were diluted in water to a final testing concentration of 32 µg/mL while keeping the final co-solvent concentration to a maximum of 0.5%. Where applicable, compounds were serially diluted 1:2 fold eight times. Each sample concentration was prepared in 384-well plates, non-binding surface plate (NBS; Corning 3640) for each bacterial/fungal strain, tissue-culture treated (TC-treated; Corning 3712/3764), black for mammalian cell types and polypropylene 384-well (PP; Corning 3657) for hemolysis assays, all in duplicate (n = 2), and keeping the final DMSO concentration to a maximum of 0.5%. All sample preparation was conducted using liquid handling robots.
(§2) For the bacterial assays, four Gram-negative bacteria (E. coli (ATCC 25922, Manassas, VA, USA); K. pneumoniae (ATCC 700603), A. baumannii; (ATCC 19606), and P. aeruginosa (ATCC 27853) and the Gram-positive bacteria (S. aureus MRSA (ATCC 43300) were used. Each strain was cultured in cation-adjusted Mueller Hinton broth (CAMHB; Bacto Laboratories 212322, Mount Pritchard, Australia) at 37 °C overnight. A sample of each culture was then diluted 40-fold in fresh CAMHB and incubated at 37 °C for 1.5–3 h. The resultant mid-log phase cultures were diluted with CAMHB (CFU/mL measured by OD600), then added to each well of the compound-containing plates (384-well non-binding surface (NBS) plates; Corning CLS3640, Millipore Sigma, Burlington, MA, USA), giving a cell density of 5 × 10^5 CFU/mL and a total volume of 50 µL. Plates were covered and incubated at 37 °C for 18 h without shaking. Inhibition of bacterial growth was determined by measuring absorbance at 600 nm (OD600) with a Tecan M1000 Pro monochromator plate reader, using media-only as negative control and bacteria without inhibitors as a positive control. […] Colistin sulfate (Sigma C4461) and vancomycin HCl (Sigma 861987) were used as internal controls on each plate for Gram-negative and Gram-positive bacteria, respectively.

The subject of data set [2] is A. baumannii (ATCC 19606). The data set is described as above. The data set is classed as cell-based, Acinetobacter baumannii. Particulars: up to 32 μg/mL; for MIC / Dmax: Acinetobacter baumannii, ATCC19606; for Dmax: read-out: Dmax A. baumannii, maximum % inhibition. The procedure:
as §1, §2

Data set [3] has as its system E. coli (ATCC 25922). The data set is described as above. The data set is classed as cell-based, Escherichia coli. Particulars: up to 32 μg/mL; for MIC / Dmax: Escherichia coli, ATCC25922; for Dmax: read-out: Dmax E. coli, maximum % inhibition. As to the method:
as §1, §2

For data set [4], the system named is C. albicans (ATCC 90028). Put plainly: CO-ADD antifungal assay, growth inhibition (OD630). The data set is classed as cell-based, Candida albicans. The settings on record: up to 32 μg/mL; for MIC / Dmax: Candida albicans, ATCC90028; for Dmax: read-out: Dmax C. albicans, maximum % inhibition. As to the method: (§3) The compounds were used as received by the CO-ADD. For the screenings, most compounds were dissolved to a stock concentration of 10 mg/mL in DMSO. K2[Ti(Citrate)3], Na3Citrate, and K2[TiO(Oxalate)2] were dissolved in warm water. [Cu(Deferasirox)(H2O)]2 was dissolved in pyridine after its solubility was determined to be excellent in pyridine due to coordination of the solvent to the metal producing [Cu(Deferasirox)(pyridine)]2 in situ. […] Each sample concentration was prepared in 384-well plates, non-binding surface plate (NBS; Corning 3640) for each bacterial/fungal strain, tissue-culture treated (TC-treated; Corning 3712/3764), black for mammalian cell types and polypropylene 384-well (PP; […] All sample preparation was conducted using liquid handling robots. For the fungal assays, the fungi (C. albicans (ATCC 90028) and C. neoformans) (ATCC 208821) were used. Both fungi (yeast) strains were cultured for 3 days on Yeast Extract-Peptone Dextrose (YPD; Becton Dickinson 242720, Thermo Fisher Scientific, Waltham, MA, USA) agar at 30 °C. A yeast suspension of 1 × 10^6 to 5 × 10^6 CFU/mL (as determined by OD530) was prepared from five colonies from the agar plates, subsequently diluted with Yeast Nitrogen Base media (YNB; Becton Dickinson 233520, Thermo Fisher Scientific, Waltham, MA, USA), and added to each well of the compound-containing plates (384-well plates, NBS; Corning CLS3640) giving a final cell density of 2.5 × 10^3 CFU/mL and a total volume of 50 μL. Plates were covered and incubated at 35 °C for 36 h without shaking. […] Sigma R7017) and incubation at 35 °C for 2 h, using media-only as a negative control and fungi without inhibitors as a positive control. […] Fluconazole (Sigma F8929) was used as an internal control on each plate for both strains.

Data set [5] deals with S. aureus MRSA (ATCC 43300). Put plainly: CO-ADD antibacterial assay, growth inhibition (OD600). Particulars: for MIC / Dmax: Staphylococcus aureus; for Dmax: read-out: Dmax S. aureus (MRSA), maximum % inhibition. The data set is classed as cell-based, Staphylococcus aureus. As to the method:
as §1, §2

In data set [6] the test system is MRC-5 cells. Put plainly: MRC-5 cell viability, dose-response treatment, MTT assay. The data set is classed as cell-based, human. Particulars: MRC-5 cells, MTT, 72 h, pH 7.4, n = 6, this work. As to the method:
A thawed stock of MRC-5 cells was washed with 1X PBS and resuspended in phenol red DMEM media (supplemented with 10% FBS and 1% of penicillin-streptomycin) and then seeded in a 100 mm × 20 mm (complete, O.D. x H) petri dish and grown in a 5% (v/v) CO2 humidified atmosphere at 37 °C. At least three passages were performed to ensure the integrity of the cells. After this point, cells were collected, thoroughly washed with 1X PBS, and then resuspended in phenol red-free DMEM (supplemented with 10% FBS, 1% Streptomycin/Penicillin, and 2.4 mM L-glutamine) at a 2.0 × 10^5 cells/mL concentration. Approximately 100 µL of the cell solution was seeded into wells of several 96-well plates to begin the MTT assay, which was performed in the 5% (v/v) CO2 humidified atmosphere at 37 °C. At least one lane of wells in each plate was supplied media without cells as a control. […] Most of the compounds were dissolved in 1X PBS buffer at pH 7.4. […] Titanocene dichloride was prepared as a fresh stock solution in DMSO and then diluted in 0.1 M NaCl (aq) instead of 1X PBS (to minimize hydrolysis induced precipitation) to the desired concentration while maintaining a constant 1% (v/v) DMSO background (0.5% DMSO after mixing with the well media). A control of cells treated with media containing 1% (v/v) DMSO was included in the study. The titanocene solutions were used within an hour of preparation in the final cell solution. […] At 3 h before a total of 72 h of incubation with the compounds, the cells were treated with 25 µL of 9 mg/mL MTT prepared in 1X PBS and sterile-filtered. Upon completion of the three hours, 50 µL of 10% (w/v) SDS (prepared in 0.1 M Tris buffer at pH 11) was added to solubilize the purple formazan product crystals and left overnight in the incubator. Control wells in the plates consisted of: (1) Untreated cells + MTT as the measure of 100% viable cell growth in the media and (2) Media with no cells + MTT as the measure of zero cells in the media. Two sets of compounds could be tested per plate. The plates were read at the wavelength of 570 nm (absorbance of the formazan product at pH 10.0) and 800 nm (background control) using a Tecan plate reader. The absorbance of all wells was compared to the absorbance of the untreated cells with the MTT set as the 100% viable cell standard and the absorbance of the zero cell control set as the 0% viable cell standard. […] Nonlinear regression in Origin 8.5 was utilized to fit the growth curves using the pharmacology dose–response equation to determine the half-maximal inhibitory concentration (IC50) and the corresponding standard deviation. All samples were tested six times.

In data set [7] the test system is P. aeruginosa (ATCC 27853). The experiment in a line: CO-ADD antibacterial assay, growth inhibition (OD600). The data set is classed as cell-based, Pseudomonas aeruginosa. Particulars: up to 32 μg/mL; for MIC / Dmax: Pseudomonas aeruginosa, ATCC27853; for Dmax: read-out: Dmax P. aeruginosa, maximum % inhibition. As to the method:
as §1, §2

The subject of data set [8] is C. neoformans (ATCC 208821). Put plainly: CO-ADD antifungal assay, growth inhibition (resazurin, OD600-570). The data set is classed as cell-based, Cryptococcus neoformans. Particulars: up to 32 μg/mL; for MIC / Dmax: Cryptococcus neoformans, ATCC208821; for Dmax: read-out: Dmax C. neoformans, maximum % inhibition. The procedure: as §3
Background: Alamar Blue is a resazurin reagent that responds to reducing activity.

Data set [9] deals with MRC-5 cells. The settings on record: cited from earlier work; for IC50: read-out: IC50 ± SD.
The subject of data set [10] is HEK293 ATCC CRL-1573 human embryonic kidney cells. Put plainly: CO-ADD cytotoxicity assay (resazurin). The data set is classed as cell-based. Particulars: at the maximum concentration tested. As to the method:
The compounds were used as received by the CO-ADD. For the screenings, most compounds were dissolved to a stock concentration of 10 mg/mL in DMSO. K2[Ti(Citrate)3], Na3Citrate, and K2[TiO(Oxalate)2] were dissolved in warm water. [Cu(Deferasirox)(H2O)]2 was dissolved in pyridine after its solubility was determined to be excellent in pyridine due to coordination of the solvent to the metal producing [Cu(Deferasirox)(pyridine)]2 in situ. […] Each sample concentration was prepared in 384-well plates, non-binding surface plate (NBS; Corning 3640) for each bacterial/fungal strain, tissue-culture treated (TC-treated; Corning 3712/3764), black for mammalian cell types and polypropylene 384-well (PP; […] All sample preparation was conducted using liquid handling robots. HEK293 ATCC CRL-1573 human embryonic kidney cells were counted manually in a Neubauer hemocytometer and added to compound-containing plates (384-well plates, tissue culture-treated (TC); […] Life Technologies 11995-073) with 10% FBS (GE SH30084.03).

Where [11] appears, read: predicted or measured MIC, ≥75% growth inhibition.
[12] abbreviates: predicted or measured MIC, ≥75% growth inhibition, 36 h.
Setting [13] is: predicted or measured MIC, lowest concentration with ≥75% growth inhibition, 0.25-32 μg/mL, 18 h.

As to K2[Ti(Citrate)3] [Compound 7], the “MIC K. pneumoniae” value in [1] (setting [11]) is over 32 µg/mL. Besides, the “Dmax K. pneumoniae, maximum % inhibition” value in [1] turned out to be 15.43%. Moreover, the “MIC A. baumannii” value in data set [2] (setting [11]) is over 32 µg/mL. Besides, in data set [2], the “Dmax A. baumannii, maximum % inhibition” value stood at 17.94%. Moreover, in [3] (setting [11]), the “MIC E. coli” value is over 32 µg/mL. Besides, the “Dmax E. coli, maximum % inhibition” value in [3] is given as 10.41%. For the same compound, the “MIC C. albicans” value in data set [4] (setting [12]) was over 32 µg/mL. For the same compound, in data set [4], the “Dmax C. albicans, maximum % inhibition” value came to 44.53%. Further, the “MIC S. aureus (MRSA)” value in data set [5] (setting [13]) is over 32 µg/mL. In addition, the “Dmax S. aureus (MRSA), maximum % inhibition” value in [5] (up to 32 μg/mL) is given as 38.01%. For the same compound, the “IC50 ± SD (µg/mL)” value in [6] was >>73.2 µg/mL. For the same compound, in data set [6] (read-out: IC50 ± SD), the 50% inhibitory concentration (IC50) is over 100 µM. In addition, the “MIC P. aeruginosa” value in [7] (setting [11]) is over 32 µg/mL. In addition, the “Dmax P. aeruginosa, maximum % inhibition” value in data set [7] was 7.99%. Further, in data set [8] (setting [12]), the “MIC C. neoformans” value is over 32 µg/mL. The “Dmax C. neoformans, maximum % inhibition” value in data set [8] was −7.88%.

In the case of `O=C(O)CN(CCN(CC(=O)O)Cc1ccccc1O)Cc1ccccc1O` [Compound 5, N,N′-di(o-hydroxybenzyl)ethylenediamine-N,N′-diacetic acid monohydrochloride hydrate, reference compound], the MIC in data set [1] (setting [11]), in data set [2] (setting [11]), in [3] (setting [11]), in data set [4] (setting [12]), in data set [5] (setting [13]) and in data set [7] (setting [11]) was over 32 µg/mL each time. The MIC in data set [8] (setting [12]) is over 32 µg/mL. For the same compound, the Dmax in data set [1] was 52.9%; in data set [2], 68.3%; in data set [3], 51.6%; in data set [4] it was 3.5%; in [5] (up to 32 μg/mL), 24.3%; in [7], 69%. For the same compound, the Dmax in [8] is -17.5%. In addition, the “IC50 ± SD (µg/mL)” value in [9] is >>44.3 µg/mL. Moreover, in data set [9], the IC50 is over 100 µM. Besides, the “inhibition of HEK293 cell proliferation” value in [10] was about 50%.

For `Oc1ccccc1-c1n[nH]c(-c2ccccc2O)n1` [Compound 3, 2-[3-(2-Hydroxyphenyl)-1H-1,2,4-triazol-5-yl]phenol, reference compound], the MIC in [1] (setting [11]), in data set [2] (setting [11]), in data set [3] (setting [11]), in [4] (setting [12]), in data set [5] (setting [13]) and in data set [7] (setting [11]) was over 32 µg/mL in each case. The MIC in data set [8] (setting [12]) was over 32 µg/mL. In addition, the Dmax is 4.11% in [1]; -1.93% in [2]; -9.07% in data set [3]; 6.23% in data set [4]; -2.34% in [5] (up to 32 μg/mL); 10% in data set [7]. The Dmax in [8] was -7.23%. For the same compound, in [9], the “IC50 ± SD (µg/mL)” value is reported as >>25.3 µg/mL. In addition, the IC50 in data set [9] was over 100 µM. Further, the “activity against MRSA (in words)” value in [5] (CO-ADD screen, 32 μg/mL) is “inactive”.
